From US8999967B2, “Tricyclic fused ring inhibitors of hepatitis C” (Presidio Pharmaceuticals, Inc., priority 2010, dated 2015)

Tested on: HCV 1b_Huh-Luc/Neo-ET cell line (genotype 1b replicon in Huh 7 cells)
Experiment: HCV replicon assay (luciferase readout)
Assay type: cell-based
Conditions: Hepatitis C virus, HCV 1b replicon in Huh 7 cells, 72 h incubation, EC50 range class, read-out: Inhibition of HCV genotype 1b
Procedure: Biological activity of the compounds of the invention was determined using an HCV replicon assay. The HCV 1b_Huh-Luc/Neo-ET cell line persistently expressing a bicistronic genotype 1b replicon in Huh 7 cells was obtained from ReBLikon GMBH. This cell line was used to test compound inhibition using luciferase enzyme activity readout as a measurement of compound inhibition of replicon levels.
On Day 1 (the day after plating cells), each compound is added in triplicate to the cells. Plates are incubated for 72 h prior to determining luciferase levels. Enzyme activity was measured using a Bright-Glo Kit (cat. number E2620) manufactured by Promega Corporation. The following equation was used to generate a percent control value for each compound. % Control=(Compound Luciferase Level/Control Luciferase Level)*100
The EC50 value was determined using GraphPad Prism and the following equation: Y=Bottom asymptote+(Top asymptote-Bottom asymptote)/(1+10^((Log EC50−X)*HillSlope))
EC50 values of compounds are determined several times in the replicon assay to generate average EC50 values. […]

SMILES | EC50
COC(=O)N[C@H](C(=O)N1CCC[C@H]1c1ncc(-c2ccc3c(c2)Cc2cc(-c4cnc([C@@H]5CCCN5C(=O)[C@@H](NC(=O)OC)C(C)C)[nH]4)ccc2O3)[nH]1)C(C)C [Example 4] | 10 to 999 nM
COC(=O)N[C@@H](C(=O)N1CCC[C@H]1c1ncc(-c2ccc3c(=O)c4cc(-c5cnc([C@@H]6CSCN6C(=O)[C@H](NC(=O)OC)c6ccccc6)[nH]5)ccc4oc3c2)[nH]1)c1ccccc1 [Compound 121] | < 1 nM
COC(=O)N[C@H](C(=O)N1CSC[C@H]1c1ncc(-c2ccc3c(c2)Oc2ccc(-c4cnc([C@@H]5CSCN5C(=O)[C@@H](NC(=O)OC)C(C)C)[nH]4)cc2O3)[nH]1)C(C)C [Compound 36] | < 1 nM
COC(=O)N[C@H](C(=O)N1CCC[C@H]1c1ncc(-c2ccc3oc4cc(-c5cnc([C@@H]6CCCN6C(=O)[C@@H](NC(=O)OC)[C@@H](C)OC)[nH]5)c(Cl)cc4c(=O)c3c2)[nH]1)[C@@H](C)OC [Compound 50] | < 1 nM
COC(=O)N[C@H](C(=O)N1CCC[C@H]1c1ncc(-c2ccc3c(=O)c4cc(-c5cnc([C@@H]6COCCN6C(=O)[C@@H](NC(=O)OC)[C@@H](C)OC)[nH]5)ccc4oc3c2)[nH]1)[C@@H](C)OC [Compound 131] | < 1 nM
COC(=O)N[C@H](C(=O)N1CCC[C@H]1c1nc2ccc(-c3ccc4c(=O)c5cc(-c6cnc([C@@H]7CCCN7C(=O)[C@H](NC(=O)OC)c7ccccc7)[nH]6)ccc5oc4c3)cc2[nH]1)C(C)C [Compound 137] | < 1 nM
COC(=O)N[C@H](C(=O)N1CCC[C@H]1c1ncc(-c2ccc3oc4cc(-c5cnc([C@@H]6CCCN6C(=O)[C@@H](NC(=O)OC)C6CCOCC6)[nH]5)ccc4c(=O)c3c2)[nH]1)C(C)C [Example 17] | < 1 nM
COC(=O)N[C@H](C(=O)N[C@@H](C)c1ncc(-c2ccc3c(c2)Oc2ccc(-c4cnc([C@H](C)NC(=O)[C@@H](NC(=O)OC)C(C)C)[nH]4)cc2O3)[nH]1)C(C)C [Compound 39] | < 1 nM
COC(=O)N[C@H](C(=O)N1CCC[C@H]1c1ncc(-c2ccc3c(c2)Oc2ccc(-c4cnc([C@@H]5CCCN5C(=O)[C@@H](NC(=O)OC)[C@@H](C)OC)[nH]4)cc2C3(C)C)[nH]1)[C@@H](C)OC [Compound 71] | < 1 nM
COC(=O)N[C@H](C(=O)N1CCC[C@H]1c1ncc(-c2ccc3c(=O)c4cc(-c5cnc([C@@H]6CCCN6C(=O)[C@H](NC(=O)OC6CCOCC6)c6ccccc6)[nH]5)ccc4oc3c2)[nH]1)C(C)C [Example 19] | < 1 nM
[2H]C([2H])([2H])C([2H])(C([2H])([2H])[2H])[C@]([2H])(NC(=O)OC)C(=O)N1CCC[C@H]1c1ncc(-c2ccc3c(c2)Oc2ccc(-c4cnc([C@@H]5CCCN5C(=O)[C@@]([2H])(NC(=O)OC)C([2H])(C([2H])([2H])[2H])C([2H])([2H])[2H])[nH]4)cc2O3)[nH]1 [Compound 57] | < 1 nM
COC(=O)N[C@H](C(=O)N1CCC[C@H]1c1ncc(-c2ccc3c(c2)Oc2ccc(-c4cnc([C@@H]5CCCN5C(=O)[C@@H](NC(=O)OC)[C@@H](C)OC)[nH]4)cc2O3)[nH]1)[C@@H](C)OC [Compound 34] | < 1 nM
COC(=O)N[C@@H](C(=O)N1CCC[C@H]1c1ncc(-c2ccc3oc4cc(-c5cnc([C@@H]6CCCN6C(=O)[C@H](NC(=O)OC)c6ccccc6)[nH]5)c(C)cc4c(=O)c3c2)[nH]1)c1ccccc1 [Compound 127] | < 1 nM
COC(=O)N[C@H](C(=O)N1CCC[C@H]1c1ncc(-c2ccc3c(c2)CCc2cc(-c4cnc([C@@H]5CCCN5C(=O)[C@@H](NC(=O)OC)C(C)C)[nH]4)ccc2O3)[nH]1)C(C)C [Example 7] | < 1 nM
COC(=O)N[C@H](C(=O)N1CCC[C@H]1c1ncc(-c2ccc3c(c2)Oc2ccc(-c4cnc([C@@H]5CCCN5C(=O)[C@@H](NC(=O)OC)C(C)C)[nH]4)cc2C32CC2)[nH]1)C(C)C [Example 26] | < 1 nM
COC(=O)N[C@H](C(=O)N1CCC[C@H]1c1ncc(-c2cc3oc4ccc(-c5cnc([C@@H]6CCCN6C(=O)[C@H](NC(=O)OC)c6ccccc6)[nH]5)cc4c(=O)c3cc2F)[nH]1)C(C)C [Example 27] | < 1 nM
COC(=O)N[C@H](C(=O)N1CCC[C@H]1c1ncc(-c2ccc3c(c2)Oc2ccc(-c4cnc([C@@H]5CCCN5C(=O)[C@@H](NC(=O)OC)C(C)C)[nH]4)cc2O3)[nH]1)C(C)C [Example 3] | < 1 nM
CC[C@H](C)[C@H](NC(=O)OC)C(=O)N1CCC[C@H]1c1ncc(-c2ccc3oc4cc(-c5ccc6nc([C@@H]7CCCN7C(=O)[C@@H](NC(=O)OC)[C@@H](C)OC)[nH]c6c5)ccc4c(=O)c3c2)[nH]1 [Compound 145] | < 1 nM
COC(=O)N[C@H](C(=O)N1CCC[C@H]1c1ncc(-c2ccc3c(c2)CN(C)c2ccc(-c4cnc([C@@H]5CCCN5C(=O)[C@@H](NC(=O)OC)C(C)C)[nH]4)cc2CN3C)[nH]1)C(C)C [Example 13] | < 1 nM

SMILES | EC50
COC(=O)N[C@H](C(=O)N1CCC[C@H]1c1ncc(-c2ccc3c(c2)Cc2cc(Cl)c(-c4cnc([C@@H]5CCCN5C(=O)[C@@H](NC(=O)OC)[C@@H](C)OC)[nH]4)cc2O3)[nH]1)[C@@H](C)OC [Compound 62] | < 1 nM
CC[C@H](C)[C@H](NC(=O)OC)C(=O)N1CCC[C@H]1c1ncc(-c2ccc3c(=O)c4cc(-c5cnc([C@@H]6COCCN6C(=O)[C@@H](NC(=O)OC)[C@@H](C)CC)[nH]5)ccc4oc3c2)[nH]1 [Compound 130] | < 1 nM
CC[C@H](C)[C@H](NC(=O)OC)C(=O)N1CCCC[C@H]1c1ncc(-c2ccc3oc4cc(-c5cnc([C@@H]6CCCN6C(=O)[C@@H](NC(=O)OC)[C@@H](C)CC)[nH]5)ccc4c(=O)c3c2)[nH]1 [Compound 132] | < 1 nM
COC(=O)N[C@H](C(=O)N1CCC[C@H]1c1ncc(-c2cc3oc4ccc(-c5cnc([C@@H]6CCCN6C(=O)[C@@H](NC(=O)OC)C6CCOCC6)[nH]5)cc4c(=O)c3cc2F)[nH]1)C(C)C [Example 28] | < 1 nM
COC(=O)N[C@@H](C(=O)N1CCC[C@H]1c1ncc(-c2ccc3oc4cc(-c5cnc([C@@H]6CCCN6C(=O)[C@H](NC(=O)OC)c6ccccc6)[nH]5)c(Cl)cc4c(=O)c3c2)[nH]1)c1ccccc1 [Compound 58] | < 1 nM
C#CC[C@H](NC(=O)OC)C(=O)N1CCC[C@H]1c1ncc(-c2ccc3c(c2)Oc2ccc(-c4cnc([C@@H]5CCCN5C(=O)[C@H](CC#C)NC(=O)OC)[nH]4)cc2O3)[nH]1 [Compound 56] | < 1 nM
COC(=O)N[C@H](C(=O)N1CCC[C@H]1c1ncc(-c2cc3c(cc2F)Cc2cc(-c4cnc([C@@H]5CCCN5C(=O)[C@@H](NC(=O)OC)[C@@H](C)OC)[nH]4)ccc2O3)[nH]1)C(C)C [Example 29] | < 1 nM
COC(=O)N[C@@H](C(=O)N1CCOC[C@H]1c1ncc(-c2ccc3c(c2)Oc2ccc(-c4cnc([C@@H]5COCCN5C(=O)[C@H](NC(=O)OC)c5ccccc5)[nH]4)cc2O3)[nH]1)c1ccccc1 [Compound 65] | < 1 nM
CC[C@H](C)[C@H](NC(=O)OC)C(=O)N1CCC[C@H]1c1ncc(-c2ccc3c(c2)Oc2ccc(-c4cnc([C@@H]5CCCN5C(=O)[C@@H](NC(=O)OC)[C@@H](C)CC)[nH]4)cc2C3(C)C)[nH]1 [Compound 70] | < 1 nM
COC(=O)N[C@H](C(=O)N1CCC[C@H]1c1ncc(-c2ccc3oc4cc(-c5cnc([C@@H]6CCCN6C(=O)[C@@H](NC(=O)OC)C(C)C)[nH]5)c(Cl)cc4c(=O)c3c2)[nH]1)C(C)C [Compound 49] | < 1 nM
COC(=O)N[C@H](C(=O)N1CCC[C@H]1c1ncc(-c2ccc3oc4cc(-c5cnc([C@@H]6CCCN6C(=O)[C@H](NC(=O)OC)c6ccccc6)[nH]5)ccc4c(=O)c3c2)[nH]1)C(C)C [Example 18] | < 1 nM
COC(=O)N[C@H](C(=O)N1CCC[C@H]1c1ncc(-c2ccc3c(c2)Cc2cc(Cl)c(-c4cnc([C@@H]5CCCN5C(=O)[C@@H](NC(=O)OC)C(C)C)[nH]4)cc2O3)[nH]1)C(C)C [Compound 61] | < 1 nM
COC(=O)N[C@H](C(=O)N1CCC[C@H]1c1ncc(-c2ccc3c(c2)Oc2ccc(-c4cnc([C@@H]5CCCN5C(=O)[C@@H](NC(=O)OC)C5CCOCC5)[nH]4)cc2C3(C)C)[nH]1)C1CCOCC1 [Compound 75] | < 1 nM
COC(=O)N[C@H](C(=O)N1CCC[C@H]1c1ncc(-c2ccc3c(c2)Oc2ccc(-c4cnc([C@@H]5CCCN5C(=O)[C@@H](NC(=O)OC)C(C)C)[nH]4)cc2C3(C)C)[nH]1)C(C)C [Example 10] | < 1 nM
CC[C@H](C)[C@H](NC(=O)OC)C(=O)N1CCC[C@H]1c1ncc(-c2ccc3c(c2)Oc2ccc(-c4cnc([C@@H]5CCCN5C(=O)[C@@H](NC(=O)OC)[C@@H](C)CC)[nH]4)cc2O3)[nH]1 [Compound 46] | < 1 nM
COC[C@H](NC(=O)OC)C(=O)N1CCC[C@H]1c1ncc(-c2ccc3c(c2)Cc2cc(F)c(-c4cnc([C@@H]5CCCN5C(=O)[C@@H](NC(=O)OC)[C@@H](C)OC)[nH]4)cc2O3)[nH]1 [Compound 43] | < 1 nM
COC(=O)N[C@H](C(=O)N1CCC[C@H]1c1ncc(-c2ccc3c(=O)c4cc(-c5cnc([C@@H]6CCCN6C(=O)[C@@H](NC(=O)OC)C6CCCC6)[nH]5)ccc4oc3c2)[nH]1)C1CCCC1 [Compound 139] | < 1 nM
COC(=O)N[C@H](C(=O)N1CCC[C@H]1c1ncc(-c2ccc3c(c2)Oc2ccc(-c4cnc([C@@H]5COCCN5C(=O)[C@@H](NC(=O)OC)C(C)C)[nH]4)cc2C3)[nH]1)C(C)C [Compound 144] | < 1 nM
CC[C@H](C)[C@H](NC(=O)OC)C(=O)N1CCC[C@H]1c1ncc(-c2ccc3c(c2)Oc2ccc(-c4cnc([C@@H]5CCCN5C(=O)[C@@H](NC(=O)OC)[C@@H](C)CC)[nH]4)cc2C32CC2)[nH]1 [Compound 79] | < 1 nM
